± gives the expanded uncertainty stated by the source.
Assay: excess molar enthalpy (molar enthalpy of mixing); xn = mol fraction of the nth substance listed
Conditions: Liquid, Flow calorimetry

CCCCCC[N+]1(C)CCCC1.O=S(=O)([N-]S(=O)(=O)C(F)(F)F)C(F)(F)F + Cc1ccccc1
413.15 K, 2377 kPa
Conditions | excess molar enthalpy [kcal/mol]
x2 = 0.0759 | -0.0366 ± 0.00153
x2 = 0.1443 | -0.0704 ± 0.00287
x2 = 0.2063 | -0.0967 ± 0.00406
x2 = 0.2626 | -0.121 ± 0.00502
x2 = 0.314 | -0.145 ± 0.00598
x2 = 0.3612 | -0.165 ± 0.00669
x2 = 0.4448 | -0.189 ± 0.00765
x2 = 0.5165 | -0.199 ± 0.00813
x2 = 0.5787 | -0.203 ± 0.00837
x2 = 0.6812 | -0.188 ± 0.00765
x2 = 0.7622 | -0.151 ± 0.00621
x2 = 0.8278 | -0.112 ± 0.00454
x2 = 0.9058 | -0.0643 ± 0.00263
x2 = 0.9665 | -0.0259 ± 0.0011

CCCCCC[N+]1(C)CCCC1.O=S(=O)([N-]S(=O)(=O)C(F)(F)F)C(F)(F)F + c1ccccc1
393.15 K, 2342 kPa
Conditions | excess molar enthalpy [kcal/mol]
x2 = 0.0899 | -0.0422 ± 0.00174
x2 = 0.1686 | -0.0867 ± 0.00359
x2 = 0.238 | -0.121 ± 0.00502
x2 = 0.2998 | -0.145 ± 0.00598
x2 = 0.355 | -0.177 ± 0.00717
x2 = 0.4047 | -0.199 ± 0.00813
x2 = 0.4906 | -0.227 ± 0.00932
x2 = 0.5622 | -0.252 ± 0.0103
x2 = 0.6228 | -0.263 ± 0.0108
x2 = 0.7198 | -0.236 ± 0.00956
x2 = 0.7939 | -0.19 ± 0.00789
x2 = 0.8525 | -0.141 ± 0.00574
x2 = 0.9204 | -0.0734 ± 0.00311
x2 = 0.972 | -0.0246 ± 0.00105

CCCC[N+]1(C)CCCC1.O=S(=O)([N-]S(=O)(=O)C(F)(F)F)C(F)(F)F + c1ccccc1
363.15 K, 2239 kPa
Conditions | excess molar enthalpy [kcal/mol]
x2 = 0.0815 | -0.0309 ± 0.00129
x2 = 0.1541 | -0.0622 ± 0.00263
x2 = 0.2191 | -0.0851 ± 0.00359
x2 = 0.2777 | -0.11 ± 0.00454
x2 = 0.3308 | -0.136 ± 0.0055
x2 = 0.3792 | -0.154 ± 0.00621
x2 = 0.4639 | -0.181 ± 0.00741
x2 = 0.5357 | -0.203 ± 0.00837
x2 = 0.7758 | -0.175 ± 0.00717
x2 = 0.8385 | -0.125 ± 0.00502
x2 = 0.9121 | -0.07 ± 0.00287
x2 = 0.9689 | -0.0232 ± 0.00098

CCCC[N+]1(C)CCCC1.O=S(=O)([N-]S(=O)(=O)C(F)(F)F)C(F)(F)F + Cc1ccccc1
413.15 K, 2342 kPa
Conditions | excess molar enthalpy [kcal/mol]
x2 = 0.0687 | -0.029 ± 0.00122
x2 = 0.1315 | -0.0605 ± 0.00239
x2 = 0.1892 | -0.0872 ± 0.00359
x2 = 0.2423 | -0.103 ± 0.0043
x2 = 0.2914 | -0.119 ± 0.00478
x2 = 0.3368 | -0.136 ± 0.0055
x2 = 0.4184 | -0.16 ± 0.00645
x2 = 0.4896 | -0.168 ± 0.00693
x2 = 0.5523 | -0.166 ± 0.00669
x2 = 0.6574 | -0.153 ± 0.00621
x2 = 0.7421 | -0.123 ± 0.00502
x2 = 0.8119 | -0.094 ± 0.00382
x2 = 0.8962 | -0.0543 ± 0.00225
x2 = 0.9628 | -0.0181 ± 0.000789

Source: the NIST ThermoML archive (doi:10.1016/j.fluid.2010.09.021)
